# Test results: patent US11117947B2, “Double-acylated GLP-1 derivatives” (Novo Nordisk A/S, priority 2011, dated 2021)
# Numbered stars: 1 amine (or outer) side, 2 acyl side, 3 side chain; on linkers, the order of the positions; unused ones are H or OH. Side chains are listed from the residue outwards. Peptide text beside a SMILES is read from it. * marks the point of attachment. Decanoyl(10-(4-HOOC-PhO)) = O=C(O)c1ccc(OCCCCCCCCCC(=O)*)cc1; γGlu = O=C(O)[C@H](CCC(=O)[*:2])N[*:1]; C14 diacid = O=C(O)CCCCCCCCCCCCC(=O)*; AEEA = NCCOCCOCC(=O)O
# Assay: Estimate of oral bioavailability: gut injection in rat (caprate), exposure in plasma
# Assay type: in vivo
# Conditions: injection in jejunum, 1000 uM in 55 mg/ml sodium caprate, plasma concentration (pM) at 30 min divided by dosing solution concentration (μM), mean n=4
# Procedure: The GLP-1 derivatives were tested in a concentration of 1000 uM in a solution of 55 mg/ml sodium caprate.
# Male Sprague Dawley rats with a body weight upon arrival of approximately 240 g were obtained from Taconic (Denmark) and assigned to the different treatments by simple randomisation, 4 rats per group.
# The GLP-1 derivatives were administered in the jejunum either in the proximal part (10 cm distal for the duodenum) or in the mid-intestine (50 cm proximal for the cecum). A PE50-catheter, 10 cm long was inserted into the jejunum, forwarded at least 1.5 cm into the jejunum, and secured before dosing by ligature around the gut and the catheter with 3/0 suture distal to tip to prevent leak or catheter displacement. Catheter was placed without syringe and needle and 2 ml saline was administered into abdomen before closing the incision with wound clips.
# 100 μl of the respective GLP-1 derivative was injected into the jejunal lumen through the catheter with a 1 ml syringe. Subsequently, 200 μl of air was pushed into the jejunal lumen with another syringe to “flush” the catheter. This syringe was leaved connected to the catheter to prevent flow back into the catheter.
# Blood samples (200 ul) were collected at desired intervals (usually at times 0, 10, 30, 60, 120 and 240 min) into EDTA tubes from the tail vein and centrifuged 5 minutes, 10000G, at 4° C. within 20 minutes. […] 12, p. 240-247. The donor beads were coated with streptavidin, while acceptor beads were conjugated with a monoclonal antibody recognising a mid-/C-terminal epitope of the peptide. Another monoclonal antibody, specific for the N-terminus, was biotinylated. The three reactants were combined with the analyte and formed a two-sited immuno-complex. Illumination of the complex released singlet oxygen atoms from the donor beads, which were channeled into the acceptor beads and triggered chemiluminescence which was measured in an Envision plate reader. The amount of light was proportional to the concentration of the compound.
# After the blood sampling the rats were sacrificed under anaesthesia and the abdomen was opened to verify correct catheter placement.
# The mean (n=4) plasma concentrations (pmol/l) were determined as a function of time.
row,Compound,Dose-corrected exposure at 30 min
1,"CC[C@H](C)[C@H](NC(=O)[C@H](Cc1ccccc1)NC(=O)[C@H](CCCCNC(=O)CC[C@H](NC(=O)COCCOCCNC(=O)COCCOCCNC(=O)CCCCCCCCCCCCC(=O)O)C(=O)O)NC(=O)[C@H](CCCNC(=N)N)NC(=O)[C@H](C)NC(=O)[C@H](CCCCNC(=O)CC[C@H](NC(=O)COCCOCCNC(=O)COCCOCCNC(=O)CCCCCCCCCCCCC(=O)O)C(=O)O)NC(=O)[C@H](CCC(N)=O)NC(=O)[C@H](CCC(=O)O)NC(=O)[C@H](CCC(=O)O)NC(=O)[C@H](CC(C)C)NC(=O)[C@H](Cc1ccc(O)cc1)NC(=O)[C@H](CO)NC(=O)[C@H](CO)NC(=O)[C@@H](NC(=O)[C@H](CC(=O)O)NC(=O)[C@H](CO)NC(=O)[C@@H](NC(=O)[C@H](Cc1ccccc1)NC(=O)[C@@H](NC(=O)CNC(=O)[C@H](CCC(=O)O)NC(=O)[C@H](C)NC(=O)[C@@H](N)Cc1c[nH]cn1)[C@@H](C)O)[C@@H](C)O)C(C)C)C(=O)N[C@@H](C)C(=O)N[C@@H](Cc1c[nH]cn1)C(=O)N[C@@H](CC(C)C)C(=O)N[C@H](C(=O)NCC(=O)O)C(C)C [Example 22, N^ε24-[(4S)-4-carboxy-4-[[2-[2-[2-[[2-[2-[2-(13-carboxytridecanoylamino)ethoxy]ethoxy]acetyl]amino]ethoxy]ethoxy]acetyl]amino]butanoyl], N^ε27-[(4S)-4-carboxy-4-[[2-[2-[2-[[2-[2-[2-(13-carboxytridecanoylamino)ethoxy]ethoxy]acetyl]amino]ethoxy]ethoxy]acetyl]amino]butanoyl]-[Glu^22,Lys^24,Arg^26,Lys^27,His^31,Gly^34]-GLP-1-(7-34)-peptide] (H-HAEGTFTSDVSSYLEEQK([γGlu-AEEA-AEEA-C14 diacid])ARK([γGlu-AEEA-AEEA-C14 diacid])FIAHLVG-OH)",275
2,"CC[C@H](C)[C@H](NC(=O)[C@H](Cc1ccccc1)NC(=O)[C@H](CCCCNC(=O)COCCOCCNC(=O)COCCOCCNC(=O)CC[C@H](NC(=O)CCCCCCCCCOc1ccc(C(=O)O)cc1)C(=O)O)NC(=O)[C@H](CCCNC(=N)N)NC(=O)[C@H](C)NC(=O)[C@H](C)NC(=O)[C@H](CCC(N)=O)NC(=O)CNC(=O)[C@H](CCC(=O)O)NC(=O)[C@H](CC(C)C)NC(=O)[C@H](Cc1ccc(O)cc1)NC(=O)[C@H](CO)NC(=O)[C@H](CO)NC(=O)[C@@H](NC(=O)[C@H](CC(=O)O)NC(=O)[C@H](CO)NC(=O)[C@@H](NC(=O)[C@H](Cc1ccccc1)NC(=O)[C@@H](NC(=O)CNC(=O)[C@H](CCC(=O)O)NC(=O)[C@H](C)NC(=O)[C@@H](N)Cc1c[nH]cn1)[C@@H](C)O)[C@@H](C)O)C(C)C)C(=O)N[C@@H](CCC(=O)O)C(=O)N[C@@H](Cc1c[nH]c2ccccc12)C(=O)N[C@@H](CC(C)C)C(=O)N[C@H](C(=O)N[C@@H](CCCNC(=N)N)C(=O)NCC(=O)N[C@@H](CCCCNC(=O)COCCOCCNC(=O)COCCOCCNC(=O)CC[C@H](NC(=O)CCCCCCCCCOc1ccc(C(=O)O)cc1)C(=O)O)C(=O)NCC(=O)N[C@@H](CCC(=O)O)C(=O)O)C(C)C [Example 6, N^ε27-[2-[2-[2-[[2-[2-[2-[[(4S)-4-carboxy-4-[10-(4-carboxyphenoxy)decanoylamino]butanoyl]amino]ethoxy]ethoxy]acetyl]amino]ethoxy]ethoxy]acetyl], N^ε36-[2-[2-[2-[[2-[2-[2-[[(4S)-4-carboxy-4-[10-(4-carboxyphenoxy)decanoylamino]butanoyl]amino]ethoxy]ethoxy]acetyl]amino]ethoxy]ethoxy]acetyl]-[Arg^26,Lys^27,Glu^30,Arg^34,Lys^36]-GLP-1-(7-37)-peptidyl-Glu] (H-HAEGTFTSDVSSYLEGQAARK([AEEA-AEEA-γGlu-Decanoyl(10-(4-HOOC-PhO))])FIEWLVRGK([AEEA-AEEA-γGlu-Decanoyl(10-(4-HOOC-PhO))])GE-OH; N-terminus and C-terminus assumed)",93
3,"CC[C@H](C)[C@H](NC(=O)[C@H](Cc1ccccc1)NC(=O)[C@H](CCCCNC(=O)COCCOCCNC(=O)COCCOCCNC(=O)CC[C@H](NC(=O)CCCCCCCCCOc1ccc(C(=O)O)cc1)C(=O)O)NC(=O)[C@H](CCCNC(=N)N)NC(=O)[C@@H](NC(=O)[C@H](C)NC(=O)[C@H](CCC(N)=O)NC(=O)CNC(=O)[C@H](CCC(=O)O)NC(=O)[C@H](CC(C)C)NC(=O)[C@H](Cc1ccc(O)cc1)NC(=O)[C@H](CO)NC(=O)[C@H](CO)NC(=O)[C@@H](NC(=O)[C@H](CC(=O)O)NC(=O)[C@H](CO)NC(=O)[C@@H](NC(=O)[C@H](Cc1ccccc1)NC(=O)[C@@H](NC(=O)CNC(=O)[C@H](CCC(=O)O)NC(=O)[C@H](C)NC(=O)[C@@H](N)Cc1c[nH]cn1)[C@@H](C)O)[C@@H](C)O)C(C)C)C(C)C)C(=O)N[C@@H](CCC(=O)O)C(=O)N[C@@H](Cc1c[nH]c2ccccc12)C(=O)N[C@@H](CC(C)C)C(=O)N[C@H](C(=O)N[C@@H](CCCNC(=N)N)C(=O)NCC(=O)N[C@@H](CCCCNC(=O)COCCOCCNC(=O)COCCOCCNC(=O)CC[C@H](NC(=O)CCCCCCCCCOc1ccc(C(=O)O)cc1)C(=O)O)C(=O)NCC(=O)N[C@@H](CCC(N)=O)C(=O)O)C(C)C [Example 12, N^α(N^ε27-[2-[2-[2-[[2-[2-[2-[[(4S)-4-carboxy-4-[10-(4-carboxyphenoxy)decanoylamino]butanoyl]amino]ethoxy]ethoxy]acetyl]amino]ethoxy]ethoxy]acetyl], N^ε36-[2-[2-[2-[[2-[2-[2-[[(4S)-4-carboxy-4-[10-(4-carboxyphenoxy)decanoylamino]butanoyl]amino]ethoxy]ethoxy]acetyl]amino]ethoxy]ethoxy]acetyl]-[Val^25,Arg^26,Lys^27,Glu^30,Arg^34,Lys^36]-GLP-1-(7-37)-peptidyl)-Gln] (H-HAEGTFTSDVSSYLEGQAVRK([AEEA-AEEA-γGlu-Decanoyl(10-(4-HOOC-PhO))])FIEWLVRGK([AEEA-AEEA-γGlu-Decanoyl(10-(4-HOOC-PhO))])GQ-OH; N-terminus and C-terminus assumed)",68
4,"CC[C@H](C)[C@H](NC(=O)[C@H](Cc1ccccc1)NC(=O)[C@H](CCCCNC(=O)COCCOCCNC(=O)COCCOCCNC(=O)CC[C@H](NC(=O)CCCCCCCCCCCCC(=O)O)C(=O)O)NC(=O)[C@H](CCCNC(=N)N)NC(=O)[C@@H](NC(=O)[C@H](C)NC(=O)[C@H](CCC(N)=O)NC(=O)[C@H](CCCCNC(=O)COCCOCCNC(=O)COCCOCCNC(=O)CC[C@H](NC(=O)CCCCCCCCCCCCC(=O)O)C(=O)O)NC(=O)[C@H](CCC(=O)O)NC(=O)[C@H](CC(C)C)NC(=O)[C@H](Cc1ccc(O)cc1)NC(=O)[C@H](CO)NC(=O)[C@H](CO)NC(=O)[C@@H](NC(=O)[C@H](CC(=O)O)NC(=O)[C@H](CO)NC(=O)[C@@H](NC(=O)[C@H](Cc1ccccc1)NC(=O)[C@@H](NC(=O)CNC(=O)[C@H](CCC(=O)O)NC(=O)[C@H](C)NC(=O)[C@@H](N)Cc1c[nH]cn1)[C@@H](C)O)[C@@H](C)O)C(C)C)C(C)C)C(=O)N[C@@H](CCC(=O)O)C(=O)N[C@@H](Cc1c[nH]c2ccccc12)C(=O)N[C@@H](CC(C)C)C(=O)N[C@H](C(=O)N[C@@H](CCC(N)=O)C(=O)NCC(=O)N[C@@H](CCCNC(=N)N)C(=O)NCC(=O)O)C(C)C [Example 11, N^ε22-[2-[2-[2-[[2-[2-[2-[[(4S)-4-carboxy-4-(13-carboxytridecanoylamino)butanoyl]amino]ethoxy]ethoxy]acetyl]amino]ethoxy]ethoxy]acetyl], N^ε27-[2-[2-[2-[[2-[2-[2-[[(4S)-4-carboxy-4-(13-carboxytridecanoylamino)butanoyl]amino]ethoxy]ethoxy]acetyl]amino]ethoxy]ethoxy]acetyl]-[Lys^22,Val^25,Arg^26,Lys^27,Glu^30,Gln^34]-GLP-1-(7-37)-peptide] (H-HAEGTFTSDVSSYLEK([AEEA-AEEA-γGlu-C14 diacid])QAVRK([AEEA-AEEA-γGlu-C14 diacid])FIEWLVQGRG-OH; N-terminus and C-terminus assumed)",66
